Laboratory results taken from ChEMBL document CHEMBL4417637, “Sensitization of cancer cells to nampt inhibitors by nicotinic acid phosphoribosyltransferase neutralization” (2017).
The source made the active and inactive calls. The calls are words filed in the database; no cut-off is given here.

Key:
NAMALVA = assay: Potentiation of NAMPT inhibitor 10 mg/kg, ip bid FK866-induced antitumor activity in human NAMALWA cells xenografted in SCID mouse assessed as increase in mouse survival at 35 mg/kg, ip bid up to 45 days; format: functional, organism-based
[1] = Toxicity in NAMPT inhibitor 10 mg/kg, ip bid FK866 treated SCID mouse xenografted with human NAMALWA cells assessed as induction of obvious signs of clinical toxicity at 35 mg/kg, ip bid up to 45 days; format: organism-based; conditions: in vivo, 1080 h
[2] = target: T1, Nicotinate phosphoribosyltransferase (Homo sapiens) (UniProt Q6XQN6); assay: Inhibition of NAPRT in human OVCAR5 cells assessed as potentiation of NAMPT inhibitor FK866-induced cytotoxicity by measuring reduction in cell viability at 300 uM to 1 mM incubated for 72 hrs by SRB assay; format: cell-based
T1 sequence (whole entry): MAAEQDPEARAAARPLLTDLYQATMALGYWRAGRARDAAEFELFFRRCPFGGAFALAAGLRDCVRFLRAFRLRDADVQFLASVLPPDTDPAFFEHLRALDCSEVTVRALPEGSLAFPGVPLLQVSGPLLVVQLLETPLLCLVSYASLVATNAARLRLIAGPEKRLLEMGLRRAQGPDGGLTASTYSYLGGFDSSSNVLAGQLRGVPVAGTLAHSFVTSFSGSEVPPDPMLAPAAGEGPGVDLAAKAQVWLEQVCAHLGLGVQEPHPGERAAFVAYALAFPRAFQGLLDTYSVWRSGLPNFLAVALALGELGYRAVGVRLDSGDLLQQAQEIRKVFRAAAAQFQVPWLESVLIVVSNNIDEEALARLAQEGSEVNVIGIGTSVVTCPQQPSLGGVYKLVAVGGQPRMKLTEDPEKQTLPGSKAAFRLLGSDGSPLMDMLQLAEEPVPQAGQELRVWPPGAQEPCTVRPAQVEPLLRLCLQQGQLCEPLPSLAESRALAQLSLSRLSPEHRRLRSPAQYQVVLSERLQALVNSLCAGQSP

Compound	Activity (NAMALVA)	Activity [1]	inhibition [2]
CC(=O)Oc1ccccc1C(=O)O [ASPIRIN]	Active	Non-Toxic	–
O=C(O)c1ccccc1O	–	–	Active
